Test results from US7326384B2, “Method and apparatus for detecting physicochemical changes emitted by biological sample” (Matsushita Electric Industrial Co., Ltd., priority 2001, dated 2008).

How the values were obtained:
[1] = system: ion channel of a Lymnaea stagnail neuron; experiment: Extracellular recording of neuron electrical signal at increasing Carbachol concentrations (apparatus of FIG. 8); assay type: cell-based; details: Carbachol 0, 0.1, 0.3, 1, 3, 10, 30 and 100 μM; 10 seconds time-series data; FIG. 12
From the text: FIG. 8 is a conceptual diagram showing a configuration of an apparatus comprising the above-described device for detecting physicochemical changes emitted by a biological sample, which is configured to measure and extract the ion channel activity of the biological sample. The apparatus comprises a measurement section (signal source) 101 comprising a device for detecting physicochemical changes emitted by the biological sample and measuring an action potential generated by a neuron, a unit standard deviation calculation section 102 for sampling a signal from the measurement section 101 and calculating the standard deviation of the signal, an average calculation section 105 for calculating the average of the obtained standard deviation, an activity calculation section 108 for calculating the ion channel activity of a cell from the average of the standard deviation output by the average calculation section 105, and a data displaying section 110 for displaying the calculated activity. Communications between each section are indicated by a dashed line or a solid line in FIG. 8. Note that the unit standard deviation calculation section 102, and the average calculation section 105, and the activity calculation section 108 may be representatively software programs which are recorded in a hard disk in a computer. The data displaying section 110 may be a CRT. […]

[2] = system: ion channel of a Lymnaea stagnail neuron; experiment: Extracellular recording of neuron before and after applying Carbachol, normal distribution of standard deviations (apparatus of FIG. 9); assay type: cell-based; details: after applying 50 μM Carbachol; 10 seconds data; FIG. 13
From the text: FIG. 9 is a conceptual diagram showing a configuration of an apparatus comprising the above-described device for detecting physicochemical changes emitted by a biological sample, which is configured to measure and extract the ion channel activity of the biological sample. The apparatus is the same as the apparatus of FIG. 8, except that the normal distribution approximation section 103, the average/half-width calculation section 106 and the activity categorization section 109 are employed in place of the average calculation section 105 and the activity calculation section 108. Communications between each section are indicated by a dashed line or a solid line in FIG. 9. […]
Before and after 50 μM-concentration Carbachol is applied to a Lymnaea stagnail neuron, signals were obtained from the measurement section (signal source) 101, and the standard deviation of the signals was calculated in a manner similar to that of Example 1. […]

C[N+](C)(C)CCOC(N)=O [Carbachol]
ion channel activation (average of the standard deviation every 100 miliseconds) [1]: activated depending on the Carbachol concentration | average of the normal distribution of standard deviation values every 5 miliseconds [2]: 0.703
